Source: US20250206761A1, “HALOINDOLE MACROCYCLIC COMPOUNDS FOR THE TREATMENT OF CANCER” (Hoffmann-La Roche Inc., priority 2022, published 2025)
Where two headings read alike, the source gives them in different places.

Key:
[1] = ester bond, EDCI/HOBt/DIEA, DCM
[2] = tested on: phosphorylation of ERK, KRAS G12D in AGS cells; test: pERK inhibition assay, KRAS G12D; format: cell-based, human; settings: Homo sapiens, 4 hours
Summary of the method: (§1)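 Cells plated the day before (NCJ-H358 30,000, AGS 20,000, SW620 30,000 per well), then exposed to compound for 4 h at 0.5% DMSO final. Fixed, permeabilized, and phospho-ERK detected by in-cell ELISA (anti-pERK, HRP secondary, TMB, OD450); IC50 from 4-parameter sigmoidal fit.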

[3] = tested on: phosphorylation of ERK, KRAS G12V in SW620; test: pERK inhibition assay, KRAS G12V; format: cell-based, human; settings: Homo sapiens, SW-620, SW620, 4 hours
Summary of the method: as §1

[4] = tested on: cryopreserved suspension hepatocytes from human; test: Human hepatocyte stability assay; format: in vitro ADME; settings: for Clearance Category: human hepatocytes; for CL_hep (Human): human hepatocytes 1×10^6 cells/mL, 37° C.
Procedure: The hepatocyte stability assay measures the rate of disappearance of a compound from incubations with cryopreserved suspension hepatocytes from human. Positive controls, including Midazolam, Raloxifene and Dextromethorphan, are included in every experiment. Incubations consist of […] tested compound and suspension of human hepatocytes (1×10^6 cells/mL) in supplemented Williams' E Medium with 10% FBS and 0.5% Penicillin-streptomycin. The hepatocyte suspension was incubated with intermittent shaking 900 rpm at 37° C., in a 5% CO2 incubator. The reaction was stopped by adding methanol containing internal standard (2 μM Tolbutamide) at 2, 10, 20, 40, 60 and 120 minutes after compound addition, depletion of the parent compound was monitored by LC-MS/MS analysis.

[5] = tested on: AGS (ATCC-CRL-1739) cells; test: Cell viability assay, G12D (AGS); format: cell-based, human; settings: Homo sapiens, KRAS cell viability, 72 hrs, Cell Counting Kit-8
Summary of the method: (§2)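 Seed NCI-H358 5,000/well, AGS and SW620 2,000/well; overnight. Compound, 0.5% DMSO final, 72 hrs. CCK-8 2 hrs, OD450–OD650. IC50: 4-parameter fit.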

[6] = tested on: phosphorylation of ERK, KRAS G12C in NCJ-H358 cells; test: pERK inhibition assay, KRAS G12C; format: cell-based, human; settings: Homo sapiens, 4 hours
Summary of the method: as §1

[7] = tested on: NCI-H358 (ATCC-CRL5807) cells; test: Cell viability assay, G12C (NCI-H358); format: cell-based, human; settings: Homo sapiens; KRAS cell viability, NCI-H358, 72 hrs, Cell Counting Kit-8
Summary of the method: as §2

[8] = tested on: SW620 (ATCC-CCL-227); test: Cell viability assay, G12V (SW620); format: cell-based, human; settings: Homo sapiens, SW-620; KRAS cell viability, SW620, 72 hrs, Cell Counting Kit-8
Summary of the method: as §2

[9] = target: KRAS G12V binding to BRAF (Homo sapiens (Human), UniProt P01116+P62937, G12V); test: KRAS-BRAF with CYPA (500 nM) interaction assay (TR-FRET), G12V; format: biochemical
Summary of the method: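 A TR-FRET assay measured how compound, in the presence of CYPA, disrupts binding of GMPPNP-loaded 6His-KRAS G12V to BRAF. The buffer contained 25 mM HEPES PH=7.4, 0.002% Tween20, 0.1% BSA, 100 mM NaCl, 5 mM MgCl2 and 10 μM GMPPNP. Compounds ran as a 16-point 3-fold dilution series from 10 μM for 3 hours.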

[10] = target: KRAS G12D binding to BRAF (Homo sapiens (Human), UniProt P01116+P62937, G12D); test: KRAS-BRAF with CYPA (500 nM) interaction assay (TR-FRET), G12D; format: biochemical
[11] = target: T1, KRAS G12C-BRAF complex (Homo sapiens (Human), UniProt P01116+P62937, G12C); test: KRAS-BRAF with CYPA (500 nM) interaction assay (TR-FRET), G12C; format: biochemical
[12] = target: T1, KRAS G12C-BRAF complex; test: KRAS G12C-BRAF NanoBit assay; format: cell-based; settings: HEK293 cells, 3 hours of incubation
Procedure: This assay is to measure the ability of tested compounds in disruption of the KRAS G12C-BRAF complex at the cellular level, we established the NanoBit cellular assay in mammalian HEK293 (ATCC) cells.
HEK293 cells were grown and maintained using DMEM medium (Thermo Fisher Scientific) with 10% fetal bovine serum and 1% penicillin/streptomycin. Both KRAS G12C and BRAF RBD were cloned into the NanoBit vectors ([…] vectors system, Promega) with the orientations SnmBit-KRAS G12C and BRAF RBD-LgBit, respectively, and co-transfected into HEK293 cells. Cells were then selected with 100 μg/mL Hygromycin B (10687010, Thermo Fisher) and Blasticidin (5 μg/mL) for 4 weeks to get the stable cell pool.
On the day of the assay, 75 nL of compound solution was presented in a 384-well assay plate as a 16-point 3-fold dilution starting from a final concentration of 30 μM in DMSO. Then cells were seeded at 10,000 cells/25 μL/well in a 384-well plate. After 3 hours of incubation, 6 μL of volume of Nano-Glo® Live Cell Substrate (Promega) was added into each well. Monitor luminescence using ultra384 model in Envision at 20 minutes. Compounds that facilitate disruption of the KRAS G12C-BRAF RBD complex were identified as those eliciting a decrease of luminescence relative to DMSO control wells.

T1 sequence (P01116-2 other isoform, or with tags, fused parts or gaps G12C): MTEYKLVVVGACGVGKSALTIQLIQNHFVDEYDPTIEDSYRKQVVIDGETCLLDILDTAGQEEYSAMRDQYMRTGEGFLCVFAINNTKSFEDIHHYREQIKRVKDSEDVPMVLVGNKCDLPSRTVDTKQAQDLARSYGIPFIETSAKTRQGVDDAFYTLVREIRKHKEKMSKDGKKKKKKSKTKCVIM
T1 sequence (P62937 whole entry): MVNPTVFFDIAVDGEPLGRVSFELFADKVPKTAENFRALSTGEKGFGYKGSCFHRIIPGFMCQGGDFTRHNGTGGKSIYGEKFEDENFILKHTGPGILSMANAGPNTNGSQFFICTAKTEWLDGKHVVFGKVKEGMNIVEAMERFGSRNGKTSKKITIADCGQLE
Chain of KRAS G12V binding to BRAF (P01116-2 other isoform, or with tags, fused parts or gaps G12V): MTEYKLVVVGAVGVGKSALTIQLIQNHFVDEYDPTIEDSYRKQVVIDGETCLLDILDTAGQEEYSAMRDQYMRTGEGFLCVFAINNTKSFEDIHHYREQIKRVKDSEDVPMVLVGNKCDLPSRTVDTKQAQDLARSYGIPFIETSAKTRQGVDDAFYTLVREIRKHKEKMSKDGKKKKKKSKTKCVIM
Chain of KRAS G12V binding to BRAF (P62937 whole entry): as the sequence (P62937 whole entry) above
Chain of KRAS G12D binding to BRAF (P01116-2 other isoform, or with tags, fused parts or gaps G12D): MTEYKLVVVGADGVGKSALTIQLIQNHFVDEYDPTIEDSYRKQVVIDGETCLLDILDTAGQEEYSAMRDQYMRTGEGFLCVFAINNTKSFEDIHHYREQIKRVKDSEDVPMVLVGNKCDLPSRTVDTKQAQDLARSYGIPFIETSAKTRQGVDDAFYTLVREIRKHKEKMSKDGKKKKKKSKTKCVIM
Chain of KRAS G12D binding to BRAF (P62937 whole entry): as the sequence (P62937 whole entry) above

IC50 [2] | IC50 [3] | CL_hep (Human) [4] | IC50 [5] | IC50 [6] | IC50 [7] | IC50 [8] | IC50 [9] | IC50 [10] | IC50 [11] | IC50 [12] | Structure (SMILES) | ring closure, yield of all isomers ([1]; from CO[C@@H](C)c1ncc(N2CCOCC2)cc1-c1c(CC(C)(C)CO)c2cc(-c3csc(C[C@H](NC(=O)OC(C)(C)C)C(=O)N4CCC[C@@H](C(=O)O)N4)n3)c(F)cc2n1CC(F)(F)F, 12.0 mM, 20.0 °C, 15.0 h) | Clearance Category [4] | ring closure, yield of all isomers ([1]; from CCn1c(-c2cc(N3CCOCC3)cnc2[C@H](C)OC)c(CC(C)(C)CO)c2cc(-c3csc(C[C@H](NC(=O)OC(C)(C)C)C(=O)N4CCC[C@@H](C(=O)O)N4)n3)c(F)cc21, 11.72 mM, 20.0 °C, 12.0 h) | ring closure, yield of all isomers ([1]; from CO[C@@H](C)c1ncc(N2CCN(C(=O)OCc3ccccc3)CC2)cc1-c1c(CC(C)(C)CO)c2cc(-c3csc(C[C@H](NC(=O)OC(C)(C)C)C(=O)N4CCC[C@@H](C(=O)O)N4)n3)c(F)cc2n1CC(F)(F)F, 9.63 mM, 15.0 °C, 12.0 h)
48 nM | 26 nM | 12.5 mL/min/kg | 2240 nM | 2 nM | 2 nM | 42 nM | – | – | – | – | CO[C@@H](C)c1ncc(N2CCN(C)CC2)cc1-c1c2c3cc(c(F)cc3n1CC(F)(F)F)-c1csc(n1)C[C@H](NC(=O)[C@H](C(C)C)N1CC[C@]3(CCN(C(=O)[C@H](F)Cl)C3)C1=O)C(=O)N1CCC[C@H](N1)C(=O)OCC(C)(C)C2 (atropisomer, axis not shown; (M)) [Example 5, (2S)-2-[(5S)-7-[(2R)-2-chloro-2-fluoro-acetyl]-1-oxo-2,7-diazaspiro[4.4]nonan-2-yl]-N-[(7S,13S)-24-fluoro-(20M)-20-[2-[(1S)-1-methoxyethyl]-5-(4-methylpiperazin-1-yl)-3-pyridyl]-17,17-dimethyl-8,14-dioxo-21-(2,2,2-trifluoroethyl)-15-oxa-4-thia-9,21,27,28-tetrazapentacyclo[17.5.2.1^2,5.1^9,13.0^22,26]octacosa-1(25),2,5(28),19,22(26),23-hexaen-7-yl]-3-methyl-butanamide] | – | medium (16.24>CL_hep (mL/min/kg)>6.96 is medium clearance) | – | –
21 nM | 24 nM | 13.4 mL/min/kg | 76 nM | 1 nM | 1 nM | 21 nM | – | – | – | – | CO[C@@H](C)c1ncc(N2CCN(C)CC2)cc1-c1c2c3cc(c(F)cc3n1CC(F)(F)F)-c1csc(n1)C[C@H](NC(=O)[C@H](C(C)C)N1CCCC3(CCN(C(=O)[C@H](F)Cl)CC3)C1=O)C(=O)N1CCC[C@H](N1)C(=O)OCC(C)(C)C2 (atropisomer, axis not shown; (M)) [Example 6, (2S)-2-[9-[(2R)-2-chloro-2-fluoro-acetyl]-1-oxo-2,9-diazaspiro[5.5]undecan-2-yl]-N-[(7S,13S)-24-fluoro-(20M)-20-[2-[(1S)-1-methoxyethyl]-5-(4-methylpiperazin-1-yl)-3-pyridyl]-17,17-dimethyl-8,14-dioxo-21-(2,2,2-trifluoroethyl)-15-oxa-4-thia-9,21,27,28-tetrazapentacyclo[17.5.2.1^2,5.1^9,13.0^22,26]octacosa-1(25),2,5(28),19,22(26),23-hexaen-7-yl]-3-methyl-butanamide] | – | medium (16.24>CL_hep (mL/min/kg)>6.96 is medium clearance) | – | –
110 nM | 48 nM | 6.4 mL/min/kg | 1280 nM | 2 nM | 2 nM | 635 nM | > 10000 nM | 4370 nM | 122 nM | – | CO[C@@H](C)c1ncc(N2CCN(C)CC2)cc1-c1c2c3cc(c(F)cc3n1CC(F)(F)F)-c1csc(n1)C[C@H](NC(=O)[C@H](C(C)C)N1CC[C@@]3(CCN(C(=O)[C@H](F)Cl)C3)C1=O)C(=O)N1CCC[C@H](N1)C(=O)OCC(C)(C)C2 (atropisomer, axis not shown; (M)) [Example 4, (2S)-2-[(5R)-7-[(2R)-2-chloro-2-fluoro-acetyl]-1-oxo-2,7-diazaspiro[4.4]nonan-2-yl]-N-[(7S,13S)-24-fluoro-(20M)-20-[2-[(1S)-1-methoxyethyl]-5-(4-methylpiperazin-1-yl)-3-pyridyl]-17,17-dimethyl-8,14-dioxo-21-(2,2,2-trifluoroethyl)-15-oxa-4-thia-9,21,27,28-tetrazapentacyclo[17.5.2.1^2,5.1^9,13.0^22,26]octacosa-1(25),2,5(28),19,22(26),23-hexaen-7-yl]-3-methyl-butanamide] | – | low (CL_hep (mL/min/kg)<6.96 is low clearance) | – | –
– | – | 10.9 mL/min/kg | 3240 nM | – | < 1 nM | 771 nM | – | – | – | 32 nM | CO[C@@H](C)c1ncc(N2CCN(C)CC2)cc1-c1c2c3cc(c(F)cc3n1CC(F)(F)F)-c1csc(n1)C[C@H](NC(=O)[C@H](C(C)C)N1CCC3(CCN(C(=O)[C@H](F)Cl)CC3)C1=O)C(=O)N1CCC[C@H](N1)C(=O)OCC(C)(C)C2 (atropisomer, axis not shown; (M)) [Example 15, (2S)-2-[8-[(2R)-2-chloro-2-fluoro-acetyl]-1-oxo-2,8-diazaspiro[4.5]decan-2-yl]-N-[(7S,13S)-24-fluoro-(20M)-20-[2-[(1S)-1-methoxyethyl]-5-(4-methylpiperazin-1-yl)-3-pyridyl]-17,17-dimethyl-8,14-dioxo-21-(2,2,2-trifluoroethyl)-15-oxa-4-thia-9,21,27,28-tetrazapentacyclo[17.5.2.1^2,5.1^9,13.0^22,26]octacosa-1(25),2,5(28),19,22(26),23-hexaen-7-yl]-3-methyl-butanamide] | – | medium (16.24>CL_hep (mL/min/kg)>6.96 is medium clearance) | – | –

Further lines, the molecule ahead of its results:

Structure (SMILES) | IC50 [2] | IC50 [3] | CL_hep (Human) [4] | IC50 [5] | IC50 [6] | IC50 [7] | IC50 [8] | IC50 [9] | IC50 [10] | IC50 [11] | IC50 [12] | ring closure, yield of all isomers ([1]; from CO[C@@H](C)c1ncc(N2CCOCC2)cc1-c1c(CC(C)(C)CO)c2cc(-c3csc(C[C@H](NC(=O)OC(C)(C)C)C(=O)N4CCC[C@@H](C(=O)O)N4)n3)c(F)cc2n1CC(F)(F)F, 12.0 mM, 20.0 °C, 15.0 h) | Clearance Category [4] | ring closure, yield of all isomers ([1]; from CCn1c(-c2cc(N3CCOCC3)cnc2[C@H](C)OC)c(CC(C)(C)CO)c2cc(-c3csc(C[C@H](NC(=O)OC(C)(C)C)C(=O)N4CCC[C@@H](C(=O)O)N4)n3)c(F)cc21, 11.72 mM, 20.0 °C, 12.0 h) | ring closure, yield of all isomers ([1]; from CO[C@@H](C)c1ncc(N2CCN(C(=O)OCc3ccccc3)CC2)cc1-c1c(CC(C)(C)CO)c2cc(-c3csc(C[C@H](NC(=O)OC(C)(C)C)C(=O)N4CCC[C@@H](C(=O)O)N4)n3)c(F)cc2n1CC(F)(F)F, 9.63 mM, 15.0 °C, 12.0 h)
CO[C@@H](C)c1ncc(N2CCOCC2)cc1-c1c2c3cc(c(F)cc3n1CC(F)(F)F)-c1csc(n1)C[C@H](NC(=O)OC(C)(C)C)C(=O)N1CCC[C@H](N1)C(=O)OCC(C)(C)C2 | – | – | – | – | – | – | – | – | – | – | – | 81.3% | – | – | –
CCn1c(-c2cc(N3CCOCC3)cnc2[C@H](C)OC)c2c3cc(c(F)cc31)-c1csc(n1)C[C@H](NC(=O)OC(C)(C)C)C(=O)N1CCC[C@H](N1)C(=O)OCC(C)(C)C2 | – | – | – | – | – | – | – | – | – | – | – | – | – | 49.1% | –
CO[C@@H](C)c1ncc(N2CCN(C(=O)OCc3ccccc3)CC2)cc1-c1c2c3cc(c(F)cc3n1CC(F)(F)F)-c1csc(n1)C[C@H](NC(=O)OC(C)(C)C)C(=O)N1CCC[C@H](N1)C(=O)OCC(C)(C)C2 | – | – | – | – | – | – | – | – | – | – | – | – | – | – | 73.4%
CC(C)[C@@H](C(=O)N[C@H]1Cc2cc(O)cc(c2)-c2ccc3c(C(C)(C)C#N)cn(c3c2)CC(C)(C)COC(=O)[C@@H]2CCCN(N2)C1=O)N1CCC2(CN(C(=O)[C@H](F)Cl)C2)C1=O [RM44-A, reference compound] | > 10000 nM | > 10000 nM | <2.4 mL/min/kg | – | > 10000 nM | – | – | > 10000 nM | > 10000 nM | 779 nM | 1150 nM | – | low (CL_hep (mL/min/kg)<6.96 is low clearance) | – | –
